As a reminder, the EC50 is the concentration at which the effect is half-maximal. By IC50 is commonly meant the point on the concentration scale where inhibition reaches its midpoint.

Series [1] has as its system E-box-LUC reporter. Put plainly: E-box-LUC luciferase reporter assay, dose-response in stably transfected NIH3T3 cells. The note with it: Mus musculus, E-box-LUC reporter activity, NIH3T3, 36 h; for Emax: maximum response as a percentage of the vehicle-treated group, read-out: Max (%). Type of series: cell-based. On the procedure: Materials for cell culture were purchased from Thermo Fisher Scientific, unless otherwise stated. NIH3T3 and HEK293T cells were maintained in Dulbecco’s modified Eagle medium supplemented with 5% fetal bovine serum and 100 U/mL penicillin/streptomycin in a humidified atmosphere containing 5% CO2 at 37 °C. Plasmids and transfection experiments for luciferase reporter assay were described in our previous report. For dose-response experiments, mouse NIH3T3 cells stably transfected with an E-box-LUC reporter were plated in 12-well culture plates, treated as indicated for 36 h, and subjected to luciferase assay. For transient transfections, we seeded HEK293T cells in 12-well culture plates and used Lipofectamine® 3000 reagent to transfect cells with the E-box-LUC reporter and the indicated clock gene expression plasmids together with a thymidine kinase promoter-driven Renilla luciferase (pRL-TK) plasmids. We kept total DNA levels constant by adding an empty pcDNA3.1 plasmid. After 24 h of transfection, cells were treated with vehicle (0.1% DMSO) or chemical compounds at various concentrations for 36 h. Cell extracts were prepared by incubating cells in 0.3 mL reporter lysis buffer for 15 min at room temperature. Luciferase activity was measured with a commercial dual luciferase assay kit (Promega, Madison, WI, USA).
(§1) The EC50 values for luciferase reporter assay were calculated based on a logistic four-parametric equation using the mean values of intrinsic activation (SigmaPlot 10.0; Systat Software Inc., San Jose, CA, USA). The IC50 and t1/2 values for the cytochrome P450 inhibition assay and metabolic stability test were calculated by WinNonlin software (Pharsight, Mountain View, CA, USA). Pharmacokinetic parameters were calculated using non-compartmental analysis (WinNonlin v.8.3; Pharsight, Mountain View, CA, USA). Kinetic and equilibrium constants for SPR analysis were obtained by global fitting of the Langmuir 1:1 bimolecular kinetic model (ProteOn Manager v.3.1.0.6, Bio-Rad, Hercules, CA, USA). Circadian molecular clock-enhancing activities were expressed as means ± SE and statistically evaluated by Student’s t-test or one-way analysis of variance (ANOVA) followed by Newman–Keuls multiple comparison test for post hoc comparisons. The significance level for the analyses was set at p < 0.05.
(In a reporter assay the amount or activity of a reporter protein is the signal.)

The test system of series [2] is CYP3A. Description: Cytochrome P450 inhibition assay (cocktail method, human liver microsomes), midazolam 1'-hydroxylation. It is filed as in vitro ADME. Particulars: pooled human liver microsomes, probe midazolam (5 μM). The procedure:
(§2) The inhibitory effects of KS15 and compound 5d on the metabolism of five cytochrome P450 (P450) probe substrates were evaluated using previous methods with slight modifications. The following P450 probe substrates were used: phenacetin (100 μM) for CYP1A2, tolbutamide (100 μM) for CYP2C9, omeprazole (20 μM) for CYP2C19, dextromethorphan (5 μM) for CYP2D6, and midazolam (5 μM) for CYP3A. Incubation mixtures containing pooled human liver microsomes (HLMs, XTreme 200, XenoTech, Lenexa, KS, USA), P450 probe substrates, and KS15 or compound 5d (final concentrations: 0, 0.5, 2, 5, 20, and 50 μM) were preincubated for 5 min at 37 °C. […] After centrifugation at 18,000× g (5 min, 4 °C), supernatant aliquots were analyzed by liquid chromatography-tandem mass spectrometry (LC-MS/MS). […]
(§3) All metabolites and IS were separated on a Kinetex C18 column (100 mm × 2.1 mm, 2.6 μm ID., Phenomenex, Torrance, CA, USA) and analyzed using an LC-MS/MS system (LCMS 8060, Shimadzu, Tokyo, Japan) equipped with an electrospray ionization (ESI) interface. […]
(§4) The EC50 values for luciferase reporter assay were calculated based on a logistic four-parametric equation using the mean values of intrinsic activation (SigmaPlot 10.0; Systat Software Inc., San Jose, CA, USA). […] Pharmacokinetic parameters were calculated using non-compartmental analysis (WinNonlin v.8.3; Pharsight, Mountain View, CA, USA). […]
(In general: Microsomes from liver hold many membrane-bound enzymes, among them those of drug oxidation.)

In series [3] the target is T1, CYP2D6 (Homo sapiens, UniProt P10635).
T1 construct: pooled human liver microsomes (HLMs, XTreme 200, XenoTech, Lenexa, KS, USA); tissue XenoTech XTreme 200; host or cells: pooled human liver microsomes
T1 sequence (P10635 whole entry): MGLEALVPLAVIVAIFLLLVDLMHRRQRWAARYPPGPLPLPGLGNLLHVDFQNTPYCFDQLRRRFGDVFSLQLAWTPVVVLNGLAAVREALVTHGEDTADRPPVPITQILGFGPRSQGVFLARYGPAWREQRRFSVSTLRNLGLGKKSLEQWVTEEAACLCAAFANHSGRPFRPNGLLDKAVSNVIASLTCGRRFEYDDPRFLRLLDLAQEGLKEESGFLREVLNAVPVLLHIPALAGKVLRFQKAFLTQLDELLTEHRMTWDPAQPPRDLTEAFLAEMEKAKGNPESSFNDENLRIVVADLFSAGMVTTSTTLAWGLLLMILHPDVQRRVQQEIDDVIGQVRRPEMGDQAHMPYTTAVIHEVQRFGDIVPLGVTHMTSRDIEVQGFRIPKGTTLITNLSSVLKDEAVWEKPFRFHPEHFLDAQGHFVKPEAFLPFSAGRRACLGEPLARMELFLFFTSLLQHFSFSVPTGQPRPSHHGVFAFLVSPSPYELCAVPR
Description: Cytochrome P450 inhibition assay (cocktail method, human liver microsomes), dextromethorphan O-demethylation. It is filed as in vitro ADME. On the procedure:
as §2, §3, §4

Series [4] has as its target T2, CYP2C19 (Homo sapiens, UniProt P33261).
T2 construct: pooled human liver microsomes (HLMs, XTreme 200, XenoTech, Lenexa, KS, USA); tissue XenoTech XTreme 200; host or cells: pooled human liver microsomes
Description: Cytochrome P450 inhibition assay (cocktail method, human liver microsomes), omeprazole hydroxylation. It is filed as in vitro ADME. On the procedure: as §2, §3, §4

Series [5] is described as follows: Metabolic stability test in pooled human liver microsomes. Type of series: in vitro ADME. The note with it: pooled HLMs 1.0 mg/mL, 1 μM compound, NADPH generating system, read-out: t1/2 in HLMs. The procedure:
The metabolic stability of KS15, 5d, or 2d was evaluated using pooled HLMs. Pooled HLMs (1.0 mg/mL), a potassium phosphate buffer, and a test compound (1 μM) were pre-incubated (37 °C, 5 min). To initiate the reaction, the NADPH generating system was added to the samples and incubated for specific time points (0, 5, 15, 20, 45, and 60 min). Then, aliquots were taken and reactions terminated in acetonitrile containing IS. After centrifugation, supernatants were analyzed using LC-MS/MS to determine KS15, 5d, or 2d concentrations in samples. Analyte separation was performed using a Kinetex C18 column (100 mm × 2.1 mm, 2.6 μm ID., Phenomenex). The mobile phase solvent A was 0.1% formic acid in water, and solvent B was 0.1% formic acid in acetonitrile. Gradient separation was performed as follows: 0–3 min (10–90% B) and 3.1–8 min (10% B). The flow rate was 0.2 mL/min, and the run time was 8 min for each sample. Electrospray ionization was conducted in positive ion mode at 4 kV. […] Quantitation was performed in the SRM of the [M+H]^+ ion and the related product ion for each test compound and IS: KS-15 (m/z 420 > 169, CE 30 eV), 5d (m/z 359 > 206, CE 20 eV), 2d (m/z 345 > 192, CE 22 eV), and IS (m/z 295 > 100, CE 17 eV).
as §1, with “Kinetic and equilibrium constants for SPR analysis were obtained by global fitting of the Langmuir 1:1 bimolecular kinetic model (ProteOn Manager v.3.1.0.6, Bio-Rad, Hercules, CA, USA).” left out, “The significance level for the analyses was set at p < 0.05.” left out

Series [6] deals with T3, CYP2C9 (Homo sapiens, UniProt P11712).
T3 construct: pooled human liver microsomes (HLMs, XTreme 200, XenoTech, Lenexa, KS, USA); tissue XenoTech XTreme 200; host or cells: pooled human liver microsomes
T3 sequence (P11712 whole entry): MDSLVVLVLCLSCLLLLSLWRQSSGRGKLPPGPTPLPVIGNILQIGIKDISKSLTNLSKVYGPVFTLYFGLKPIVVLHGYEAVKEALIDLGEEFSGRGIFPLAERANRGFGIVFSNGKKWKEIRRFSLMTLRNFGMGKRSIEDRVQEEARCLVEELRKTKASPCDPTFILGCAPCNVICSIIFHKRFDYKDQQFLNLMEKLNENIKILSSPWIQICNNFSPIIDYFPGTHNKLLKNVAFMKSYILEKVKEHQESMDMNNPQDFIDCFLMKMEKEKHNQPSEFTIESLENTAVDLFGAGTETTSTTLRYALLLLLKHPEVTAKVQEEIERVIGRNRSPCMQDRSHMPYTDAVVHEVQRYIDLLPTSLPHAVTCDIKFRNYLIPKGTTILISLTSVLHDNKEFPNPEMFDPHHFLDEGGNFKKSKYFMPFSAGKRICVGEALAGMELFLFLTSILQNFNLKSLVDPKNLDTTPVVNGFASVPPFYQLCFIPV
Put plainly: Cytochrome P450 inhibition assay (cocktail method, human liver microsomes), tolbutamide 4-methylhydroxylation. It is filed as in vitro ADME. On the procedure: as §2, §3, §4

The target of series [7] is T4, CYP1A2 (Homo sapiens, UniProt P05177).
T4 construct: pooled human liver microsomes (HLMs, XTreme 200, XenoTech, Lenexa, KS, USA); tissue XenoTech XTreme 200; host or cells: pooled human liver microsomes
T4 sequence (P05177 1-516): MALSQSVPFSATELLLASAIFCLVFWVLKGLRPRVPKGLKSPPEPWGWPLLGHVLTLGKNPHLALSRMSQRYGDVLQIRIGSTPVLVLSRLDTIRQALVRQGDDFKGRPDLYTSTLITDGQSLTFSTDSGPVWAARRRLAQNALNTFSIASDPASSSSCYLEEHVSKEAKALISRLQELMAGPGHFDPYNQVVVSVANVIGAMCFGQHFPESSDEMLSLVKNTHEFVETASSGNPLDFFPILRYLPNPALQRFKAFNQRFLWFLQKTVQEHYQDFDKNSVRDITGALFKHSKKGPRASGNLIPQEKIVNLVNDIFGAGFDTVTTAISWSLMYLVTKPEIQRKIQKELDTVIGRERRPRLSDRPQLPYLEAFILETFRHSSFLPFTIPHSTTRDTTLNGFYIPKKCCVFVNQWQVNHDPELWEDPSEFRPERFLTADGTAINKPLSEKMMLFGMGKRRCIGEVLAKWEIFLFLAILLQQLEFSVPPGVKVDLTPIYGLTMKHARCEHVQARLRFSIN
Description: Cytochrome P450 inhibition assay (cocktail method, human liver microsomes), phenacetin O-deethylation. It is filed as in vitro ADME. The procedure:
as §2, §3, §4

Series [8] relates to Per2-luciferase knock-in (Per2-Luc-KI) fibroblast cultures. Description: Real-time bioluminescence monitoring of DEX-synchronized Per2-Luc-KI fibroblast cultures. It is filed as cell-based, mouse. Particulars: 20 μM, DEX-synchronized Per2-Luc-KI fibroblasts. On the procedure: For real-time bioluminescence monitoring, we used mouse embryonic fibroblast (MEF) cultures established from Per2-LUC-KI mice. […] The medium was then replaced with a recording medium containing 0.1 mM D-luciferin (Promega) along with vehicle (0.1% DMSO), KS15 (20 μM), 5d (20 μM), or 2d (20 μM). Light emission for 2 min at intervals of 20 min was integrated using a dish-type wheeled luminometer (Kronos-Dio, ATTO Cooperation, Tokyo, Japan). Background-subtracted bioluminescence profiles were analyzed using Cosinor analysis software (available at http://www.circadian.org, last accessed on 19 May 2021).
as §1

Bounds are passed on as bounds.

T2 sequence (P33261 whole entry): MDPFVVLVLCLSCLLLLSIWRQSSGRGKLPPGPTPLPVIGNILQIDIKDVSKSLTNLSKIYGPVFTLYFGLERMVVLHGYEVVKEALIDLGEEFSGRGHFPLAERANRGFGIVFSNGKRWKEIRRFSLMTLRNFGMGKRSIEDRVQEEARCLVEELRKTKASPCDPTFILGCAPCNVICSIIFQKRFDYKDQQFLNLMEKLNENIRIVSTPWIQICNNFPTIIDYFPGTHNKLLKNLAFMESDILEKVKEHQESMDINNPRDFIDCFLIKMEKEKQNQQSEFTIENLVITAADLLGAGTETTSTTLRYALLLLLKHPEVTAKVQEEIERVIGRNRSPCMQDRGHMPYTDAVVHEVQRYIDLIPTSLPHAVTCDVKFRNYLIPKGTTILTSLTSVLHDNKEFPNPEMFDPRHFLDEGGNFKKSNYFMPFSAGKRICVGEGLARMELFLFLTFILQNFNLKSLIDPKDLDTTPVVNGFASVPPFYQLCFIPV

Regarding `C/C(=N\OCc1ccc(Br)cc1)c1cccc(OCC(=O)O)c1` [Compound 2a], in series [1], a half-maximal effect (EC50) was put at 1.54 µM and the Emax was 165%.
Regarding `CC(=NOCc1cccc(C(F)(F)F)c1)c1cccc(OCC(=O)O)c1` [Compound 2b, 2-(3-(1-(((3-trifluoromethylbenzyl)oxy)imino)ethyl)phenoxy)acetic acid], the Emax in series [1] was 131%.
Take `COc1ccc(CON=C(C)c2cccc(OCC(=O)O)c2)cc1` [Compound 2c, 2-(3-(1-(((4-methoxybenzyl)oxy)imino)ethyl)phenoxy)acetic acid]: in series [1], the EC50 is 9.88 µM and the Emax was found to be 182%.
As to `CC(=NOCc1ccc(S(C)(=O)=O)cc1)c1cccc(OCC(=O)O)c1` [Compound 2e, 2-(3-(1-(((4-methylsulfonylbenzyl)oxy)imino)ethyl)phenoxy)acetic acid], the Emax in series [1] was determined as 98.7%.
The same measure, in the same setting: then `COC(=O)COc1cccc(/C(C)=N/OCc2ccc(Br)cc2)c1` [Compound 5a], with 149%.
Still for that read-out and setting: then `COC(=O)COc1cccc(C(C)=NOCc2cccc(C(F)(F)F)c2)c1` [Compound 5b, Methyl 2-(3-(1-(((3-trifluoromethylbenzyl)oxy)imino)ethyl)phenoxy)acetate], with 172%.
Regarding `COC(=O)COc1cccc(C(C)=NOCc2ccc(OC)cc2)c1` [Compound 5c, Methyl 2-(3-(1-(((4-methoxybenzyl)oxy)imino)ethyl)phenoxy)acetate], in series [1], the EC50 turned out to be 6.32 µM and the Emax stood at 152%.
Take `COC(=O)COc1cccc(C(C)=NOCc2ccc(S(C)(=O)=O)cc2)c1` [Compound 5e, Methyl 2-(3-(1-(((4-methylsulfonylbenzyl)oxy)imino)ethyl)phenoxy)acetate]: the Emax in series [1] came to 105%.
In turn, `CCO[C@H](Cc1cccc(/C(C)=N/OCc2ccc(Br)cc2)c1)C(=O)O` [KS15, reference compound] showed an IC50 at 10 min in series [2] of 24 µM. Besides, the IC50 amounted to 23.1 µM in series [3], 20.2 µM in series [4], 9.1 µM in series [6] and 14.9 µM in series [7]. The half-life at 1 μM in series [5] is more than 1 h. Moreover, the “Amplitude of cyclic Per2 expression” value in series [8] is reported as “attenuates amplitude”. Besides, in series [8], the “Period of the rhythm” value is listed as “did not significantly alter the period”.

These data come from PMC8225008, “Development of Non-Ethoxypropanoic Acid Type Cryptochrome Inhibitors with Circadian Molecular Clock-Enhancing Activity by Bioisosteric Replacement” (Pharmaceuticals, 2021).
